The values below come from article PMC12866838, “Targeting G3BP1 Condensate Topology Promotes Stress Granule Assembly via m^6A‐IGF2BP1 for Ischemic Stroke Rescue” (Advanced Science, 2025).

Structures are written as SMILES. Where only a bound is given, the exact number is not on record here.

This assay concerns the target T1, G3BP1^335–466 (RRM and IDR3 domains) (Homo sapiens, UniProt Q13283).
T1 construct: RRM + IDR3, residues 335-466, N-terminal GST removed by thrombin, E. coli BL21(DE3)
Put plainly: SPR (Biacore T200, protein on CM5 chip). Format: binding.

T1 sequence (Q13283 335-466): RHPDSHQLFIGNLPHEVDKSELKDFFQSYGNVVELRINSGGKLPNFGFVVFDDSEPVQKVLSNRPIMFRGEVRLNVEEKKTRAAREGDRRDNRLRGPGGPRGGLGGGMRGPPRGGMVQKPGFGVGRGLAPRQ

On to `COc1ccc(-c2oc3c(CC=C(C)C)c(O[C@@H]4O[C@H](CO)[C@@H](O)[C@H](O)[C@H]4O)cc(O)c3c(=O)c2O[C@@H]2O[C@@H](C)[C@H](O)[C@@H](O)[C@H]2O)cc1` [icariin], for which the dissociation constant Kd is more than 100 µM.
